Laboratory results published in publication PMC4792470, “A Novel Manno-Oligosaccharide Binding Protein Identified in Alkaliphilic Bacillus sp. N16-5 Is Involved in Mannan Utilization” (PLoS ONE, 2016).

Target: T1, ManH (Bacillus sp. N16-5, UniProt A0A140EH86)
T1 construct: without N-terminal signal peptide; pET-28a NcoI/BamHI, native stop codon in primer; E. coli BL21(DE3); anion exchange; primers give N-terminus (M)DENTGGN and C-terminus SLEGIE; full-length starts MNKKLWL by primer
T1 sequence (A0A140EH86 17-435): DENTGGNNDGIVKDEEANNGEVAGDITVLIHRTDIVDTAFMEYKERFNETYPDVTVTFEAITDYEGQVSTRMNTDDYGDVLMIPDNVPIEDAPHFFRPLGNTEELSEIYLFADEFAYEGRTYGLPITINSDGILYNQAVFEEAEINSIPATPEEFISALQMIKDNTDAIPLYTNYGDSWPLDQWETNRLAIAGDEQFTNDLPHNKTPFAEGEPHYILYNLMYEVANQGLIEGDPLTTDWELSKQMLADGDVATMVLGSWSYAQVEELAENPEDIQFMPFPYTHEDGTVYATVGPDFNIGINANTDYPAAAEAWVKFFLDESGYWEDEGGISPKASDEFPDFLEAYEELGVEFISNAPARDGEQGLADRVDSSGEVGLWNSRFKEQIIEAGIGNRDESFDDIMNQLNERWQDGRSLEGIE
Experiment: isothermal titration calorimetry
Type: binding
Conditions: 20 mM Tris-HCl pH 8.0, 200 mM NaCl, 30 °C; independent-site model
From the text: isothermal titration calorimetry on ManH

| Molecule | Kd (1/Ka, μM) |
| --- | --- |
| OC[C@H]1O[C@@H](O[C@H]2[C@H](O)[C@H](O)[C@H](O[C@H]3[C@H](O)[C@H](O)[C@H](O[C@H]4[C@H](O)[C@H](O)[C@H](O[C@H]5[C@H](O)[C@H](O)C(O)O[C@@H]5CO)O[C@@H]4CO)O[C@@H]3CO)O[C@@H]2CO)[C@@H](O)[C@@H](O)[C@@H]1O (stereo partly shown) [mannopentose] | 0.8 µM |
| OC[C@H]1O[C@@H](O[C@H]2[C@H](O)[C@H](O)[C@H](O[C@H]3[C@H](O)[C@H](O)[C@H](O[C@H]4[C@H](O)[C@H](O)C(O)O[C@@H]4CO)O[C@@H]3CO)O[C@@H]2CO)[C@@H](O)[C@@H](O)[C@@H]1O (stereo partly shown) [mannotetraose] | 2.2 µM |
| OC[C@H]1O[C@@H](O[C@H]2[C@H](O)[C@H](O)[C@H](O[C@H]3[C@H](O)[C@H](O)C(O)O[C@@H]3CO)O[C@@H]2CO)[C@@H](O)[C@@H](O)[C@@H]1O (stereo partly shown) [mannotriose] | 3.8 µM |
| galactosyl-mannotriose | 19.4 µM |
